Source: US20260256668A1, “METHODS FOR STRENGTHENING AND REPAIRING HAIR” (Living Proof, Inc., priority 2023, published 2026)

Key:
[1] = Hair denaturation temperature (Td) by differential scanning calorimeter (DSC); details: 3× bleached hair; for hair denaturation temperature (Td) compared to bleached, virgin and phytic acid (PA) treated hair: 2 wt % active aqueous solution, pH 4.0-4.5, 10 min, blow dry (FIGS. 4, 6, 7)
Method: European virgin brown hair was bleached three times to obtain the 3× bleached hair model. Each bleaching was done with a mixture of bleaching powder (BW2) and 40V clear developer at 1:2 ratio (5 g mixture per 1.5 g of hair) for 1 hour at room temperature, followed by 30 s water rinse, 1× wash with Sodium Lauryl Ether Sulfate (SLES), and dried in a humidity chamber for 15 min at 50° C., 20% RH. […] For each DSC measurement, a 3-5 mg of hair sample in 50 μL Deionized water is sealed and equilibrated (overnight) in a stainless-steel pressure resistant high-volume pan, then heated from 25° C. to 180° C. at a 5° C./min heating rate.

[2] = Dia-Stron single fiber tensile (mechanical) testing; details: 3× bleached hair, compared to bleached hair before treatment (FIG. 8)
Method: All single fiber tensile measurements are performed using a Dia-Stron MTT686/MTT690 (under 100% extension at gauge force of […], break threshold of 5 g, rate of 20 mm/min, maximum force of 2000 gmf and premature failure threshold of 10% strain). Before the tensile testing, all hair fibers (30 mm in length, ≥20 fibers per treatment) are fixed by 2 brass crimps at the ends and mounted on a Dia-Stron tray. Initial dimension measurements are collected using a Dia-Stron FDAS770 (double ended samples, sample size of 30 mm in length, no of slices of 5 under one rotation per slice), followed by equilibration in Deionized water for at least 2 h prior to testing.

[3] = Water contact angle (surface hydrophobicity), DSA100M Drop Shape Analyzer
Method: For this test, […], which was prepared by treating European virgin brown hair with a mixture of BW2 bleaching powder and clear 30 V developer (1:1.5 ratio, 5 g mixture per 1.5 g of hair) for 20 min under a Belvedere hooded dryer with high heat setting, followed by 30 s water rinse, 30 s 10% SLES wash, and air dry at room temperature. […] In the DSA method, a single hair fiber is mounted in a sample holder and focused by the digital camera of DSA100M. Then a droplet of filtered DI water (20-60 nL) is applied to the top of the hair fiber by a digital droplet applier, A video is then recorded until the disappearance of the water droplet. The water contact angle is obtained using the first image of the water droplet recorded. The data is collected for 3 fibers per treatment and 3 points per fiber, a total of 9 data points per treatment.

Molecule	hair denaturation temperature (Td) compared to bleached, virgin and phytic acid (PA) treated hair [1]	Young's modulus [2]	also measured
NCP(=O)(O)O [AMPA, Aminomethyl phosphonic acid]	full recovery of Td to the virgin level	biggest increases in Young's modulus	
CCCCCCCCCCCCOP(=O)(O)O [DPhate, Lauryl phosphate]			water contact angle relative to virgin hair ([3]; ethanol solution 2 wt %, 10 min, blow dry (FIG. 12)): recovered significantly and close to the virgin level
O=P(O)(O)O[C@H]1[C@H](OP(=O)(O)O)[C@@H](OP(=O)(O)O)[C@H](OP(=O)(O)O)[C@@H](OP(=O)(O)O)[C@H]1OP(=O)(O)O [PA, phytic acid, reference compound]			hair denaturation temperature (Td) compared to the base formula ([1]; washed, 0.25 g formula (PA 0.75 wt %, with or without DPhate 1 wt %) 10 min, blow dried (FIG. 17)): significantly increased Td; hair surface hydrophobicity (water contact angle) compared to base formula ([3]; formula with PA 0.75 wt %, with or without DPhate 1 wt % (FIG. 18)): significantly improved hair surface hydrophobicity
C=CP(=O)(O)O [VPA, Vinyl phosphonic acid]	full recovery of Td to the virgin level	biggest increases in Young's modulus	
Phosphatidylcholine [PC]			water contact angle relative to virgin hair ([3]; aqueous solution 1 wt % active (FIG. 14)): recovered close to the virgin level
